# Assay results reported in patent publication US12091425B2 (AMGEN INC., priority 2016, dated 2024).
# Molecular target: T1, Mcl-1/Bim interaction, recombinant human Mcl-1 (171-327) (Homo sapiens, UniProt Q07820)
# T1 construct: made in house
# Assay: Cell free Mcl-1: Bim Affinity Assay (Mcl-1 HTRF)
# Format: binding
# Settings: TR-FRET, 0.1 nM Mcl-1 (171-327), 0.05 nM biotin-Bim (51-76)
# In short: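 Displacement of biotinylated Bim 51-76 peptide is followed by TR-FRET. Incubation runs overnight. Duplicate points are fitted with a four-parameter sigmoid to yield IC50.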
# T1 sequence (Q07820 171-327): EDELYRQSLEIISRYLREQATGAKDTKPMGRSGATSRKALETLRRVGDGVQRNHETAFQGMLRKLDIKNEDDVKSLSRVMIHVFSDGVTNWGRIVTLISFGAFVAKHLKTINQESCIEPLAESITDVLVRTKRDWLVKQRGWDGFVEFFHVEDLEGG
row,IC50,SMILES
1,0.874 nM,"O=C1NS(=O)(=O)C[C@@H](CO)C/C=C/[C@@H](O)[C@@H]2CC[C@H]2CN2C[C@@]3(CCCc4cc(Cl)ccc43)COc3ccc1cc32 (single isomer, unassigned) [Example 1089]"
2,0.951 nM,"COCCOC[C@@H]1CC/C=C/[C@H](O)[C@@H]2CC[C@H]2CN2C[C@@]3(CCCc4cc(Cl)ccc43)COc3ccc(cc32)C(=O)NS1(=O)=O (single isomer, unassigned) [Example 448]"
3,1.82 nM,"CC[C@@H]1CC/C=C/C(NC(C)=O)[C@@H]2CC[C@H]2CN2C[C@@]3(CCCc4cc(Cl)ccc43)COc3ccc(cc32)C(=O)NS1(=O)=O (stereo in doubt) [Example 1076, N-((1S,3′R,6′R,7′R,8′E,12′R)-6-chloro-12′-ethyl-13′,13′-dioxido-15′-oxo-3,4-dihydro-2H-spiro[naphthalene-1,22′-[20]oxa[13]thia[1,14]diazatetracyclo[14.7.2.0^3,6.0^19,24]pentacosa[8,16,18,24]tetraen]-7′-yl)acetamide]"
4,0.947 nM,CC[C@@H]1CC/C=C/[C@@H](NC(=O)C(C)C)[C@@H]2CC[C@H]2CN2C[C@@]3(CCCc4cc(Cl)ccc43)COc3ccc(cc32)C(=O)NS1(=O)=O [Example 1081]
5,0.602 nM,"C[C@@H]1CC/C=C/[C@H](OCCS(C)(=O)=O)[C@@H]2CC[C@H]2CN2C[C@@]3(CCCc4cc(Cl)ccc43)COc3ccc(cc32)C(=O)NS1(=O)=O [Example 406, (1S,3′R,6′R,7′S,8′E,12′R)-6-chloro-12′-methyl-7′-(2-(methylsulfonyl)ethoxy)-3,4-dihydro-2H,15′H-spiro[naphthalene-1,22′-[20]oxa[13]thia[1,14]diazatetracyclo[14.7.2.0^3,6.0^19,24]pentacosa [8,16,18,24]tetraen]-15′-one 13′,13′-dioxide]"

row,SMILES,IC50
1,COC(=O)C1CCN(C(=O)[C@H]2CC/C=C\[C@H](O)[C@@H]3CC[C@H]3CN3C[C@@]4(CCCc5cc(Cl)ccc54)COc4ccc(cc43)C(=O)NS2(=O)=O)CC1 [Example 143],2 nM

# Same assay, conditions: cell free Mcl-1:Bim TR-FRET, recombinant human Mcl-1 (171-327)
row,IC50,SMILES
1,1.59 nM,"CC1COCCC(O)C2CCC2CN2CC3(CCCc4cc(Cl)ccc43)COc3ccc(cc32)C(=O)NS1(=O)=O (single isomer, unassigned) [Example 861]"
2,0.576 nM,"CC[C@@H]1C/C=C/[C@H](O)[C@@H]2CC[C@H]2CN2C[C@@]3(CCCc4cc(Cl)ccc43)COc3ccc(cc32)C(=O)NS1(=O)=O [Example 762, (1S,3′R,6′R,7′S,8′E,11′R)-6-chloro-7′-hydroxy-11′-ethyl-3,4-dihydro-2H,14′H-spiro[naphthalene-1,21′-[19]oxa[12]thia[1,13]diazatetracyclo[13.7.2.0^3,6.0^18,23]tetracosa[8,15,17,23]tetraen]-14′-one 12′,12′-dioxide]"
3,8.26 nM,"O=C1NS(=O)(=O)CCCCCC(=O)[C@@H]2CC[C@H]2CN2C[C@@]3(CCCc4cc(Cl)ccc43)COc3ccc1cc32 [Example 832, (1S,3′R,6′R)-6-chloro-3,4-dihydro-2H,7′H,15′H-spiro[naphthalene-1,22′-[20]oxa[13]thia[1,14]diazatetracyclo[14.7.2.0^3,6.0^19,24]pentacosa [16,18,24]triene]-7′,15′-dione 13′,13′-dioxide]"
4,3.54 nM,"O=C1NS(=O)(=O)CCOCCCC2CCC2CN2C[C@@]3(CCCc4cc(Cl)ccc43)COc3ccc1cc32 (stereo in doubt) [Example 827, (3S,6R,22S)-6′-chloro-3′,4′-dihydro-2′H,15H-spiro[10,20-dioxa-13-thia-1,14-diazatetracyclo[14.7.2.0^3,6.0^19,24]pentacosa-16,18,24-triene-22,1′-naphthalen]-15-one 13,13-dioxide]"
5,2.78 nM,"C[C@@H](O)C[C@H]1CC/C=C/[C@H](O)[C@@H]2CC[C@H]2CN2C[C@@]3(CCCc4cc(Cl)ccc43)COc3ccc(cc32)C(=O)NS1(=O)=O (single isomer, unassigned) [Example 539]"
6,16.2 nM,"C=C1CCCCCS(=O)(=O)NC(=O)c2ccc3c(c2)N(C[C@@H]2CC[C@@H]12)C[C@@]1(CCCc2cc(Cl)ccc21)CO3 [Example 904, (1S,3′R,6′R)-6-chloro-7′-methylidene-3,4-dihydro-2H,15′H-spiro[naphthalene-1,22′-[20]oxa[13]thia[1,14]diazatetracyclo[14.7.2.0^3,6.0^19,24]pentacosa [16,18,24]trien]-15′-one 13′,13′-dioxide]"
7,2.93 nM,"CC[C@@H]1C/C=C/[C@H](OC)[C@@H]2CC[C@H]2CN2C[C@@]3(CCCc4cc(Cl)ccc43)COc3ccc(cc32)C(=O)NS1(=O)=O [Example 763, (1S,3′R,6′R,7′S,8′E,11′R)-6-chloro-11′-ethyl-7′-methoxy-3,4-dihydro-2H,14′H-spiro[naphthalene-1,21′-[19]oxa[12]thia[1,13]diazatetracyclo[13.7.2.0^3,6.0^18,23]tetracosa[8,15,17,23]tetraen]-14′-one 12′,12′-dioxide]"

row,SMILES,IC50
1,"O=C1NS(=O)(=O)/C=C/COC[C@@H](O)[C@@H]2CC[C@H]2CN2C[C@@]3(CCCc4cc(Cl)ccc43)COc3ccc1cc32 (single isomer, unassigned) [Example 917, (3R,6R,7S,11E,22S)-6′-chloro-7-hydroxy-3′,4′-dihydro-2′H,15H-spiro[9,20-dioxa-13-thia-1,14-diazatetracyclo[14.7.2.0^3,6.0^19,24]pentacosa-11,16,18,24-tetraene-22,1′-naphthalen]-15-one 13,13-dioxide or (3R,6R,7R,11E, 22S)-6′-chloro-7-hydroxy-3′,4′-dihydro-2′H,15H-spiro[9,20-dioxa-13-thia-1,14-diazatetracyclo[14.7.2.0^3,6.0^19,24]pentacosa-11,16,18,24-tetraene-22,1′-naphthalen]-15-one 13,13-dioxide]",4.11 nM
2,"COC[C@@]1(C)C/C=C/[C@H](O)[C@@H]2CC[C@H]2CN2C[C@@]3(CCCc4cc(Cl)ccc43)COc3ccc(cc32)C(=O)NS1(=O)=O (single isomer, unassigned) [Example 774]",1.72 nM
3,"CC[C@H]1CC/C=C/[C@H](O)[C@@H]2CC[C@H]2CN2C[C@@]3(CCc4cc(Cl)ccc43)COc3ccc(cc32)C(=O)NS1(=O)=O (single isomer, unassigned) [Example 699]",0.649 nM
4,"O=C1NS(=O)(=O)[C@H](CO)CCCC[C@H](O)[C@@H]2CC[C@H]2CN2C[C@@]3(CCCc4cc(Cl)ccc43)COc3ccc1cc32 (single isomer, unassigned) [Example 712]",0.995 nM
5,"O=C1NS(=O)(=O)CC/C=C/[C@H](O)C[C@@H]2CC[C@H]2CN2C[C@@]3(CCCc4cc(Cl)ccc43)COc3ccc1cc32 (single isomer, unassigned) [Example 884, (1S,3′R,6′S,8′R,9′E)-6-chloro-8′-hydroxy-3,4-dihydro-2H,15′H-spiro[naphthalene-1,22′-[20]oxa[13]thia[1,14]diazatetracyclo[14.7.2.0^3,6.0^19,24]pentacosa [9,16,18,24]tetraen]-15′-one 13′,13′-dioxide or (1S,3′R,6′S,8′S,9′E)-6-chloro-8′-hydroxy-3,4-dihydro-2H,15′H-spiro[naphthalene-1,22′-[20]oxa[13]thia[1,14]diazatetracyclo[14.7.2.0^3,6.0^19,24]pentacosa [9,16,18,24]tetraen]-15′-one 13′,13′-dioxide]",1.29 nM
6,"C=C1[C@@H](O)[C@H](O)CC[C@@H](CC)S(=O)(=O)NC(=O)c2ccc3c(c2)N(C[C@@H]2CC[C@@H]12)C[C@@]1(CCCc2cc(Cl)ccc21)CO3 (single isomer, unassigned) [Example 877]",26.2 nM
